What all share (type): cell-based
In assay [1] the test system is Panc-1 cells. In words: MTT cell viability assay, Panc-1. Here is the method: (§1) MTT (3-(4,5-dimethylthiazol-2-yl)-2,5-diphenyltetrazolium) assay was performed to determine the effect of AS-10 on cancer cell viability (Plano et al., 2016, J. Med. Chem. 1946-1959; Alcolea et al., 2012, Eur. J. Med. Chem. 113:134-144; Kumar et al., 2014, Eur. J. Med. Chem. 81:267-276). Briefly, 3×10^3 cells were treated with different concentrations of AS-10 in triplicate in a 96-well plate for different time points. MTT solution (20 μL of 5.0 mg/mL solution) was added to each well, three hours prior to termination time point and incubated at 37° C. Resultant formazan crystals, at termination time point, were dissolved in 50 μL DMSO. The plate was subjected to a 96-well multiscanner (Dynex Technologies, MRX Revelation; Chantilly, Va., USA) for measuring the optical densities at 570 nm and 630 nm. IC50 values were determined by performing non-linear regression using Graphpad Prism software.
To test the anti-cancer activity of AS-10 in pancreatic cancer (PC) cell lines, a MTT assay was performed. PC cell lines, Panc-1 and BxPC3, were treated with AS-10 at different doses at different time points (24, 48, and 72 h). Resulting cells were subjected to MTT cell viability assay. […] Panc-1 cells were treated with different doses of AS-10 for 48 h. After 48 h, live cells were counted and plated in a new petri dish. Cells were allowed to form colonies for 17 days. At the end of 17 days the colonies were counted and compared to the untreated cells.
(Formazan colour is commonly taken as a measure of viable cells.)

Assay [2] deals with pancreatic cancer cells. In words: MTT cell viability assay, pancreatic cancer (PC) cells. Conditions: screening. On the procedure: as §1
In assay [3] the test system is LNCaP cells. Description: MTT cell viability test, LNCaP. On the procedure:
as §1

The test system of assay [4] is Lung cancer cells (A549). In words: MTT cell viability assay, A549. Conditions: A549, 48 h (FIG. 5C); acetate functionality removed. On the procedure:
as §1

For assay [5], the system named is Panc-1 cells. In words: Muse Live/dead Annexin V assay. Conditions: Panc-1, 48 h; AS-10 2.5 μM, gemcitabine 50 μM. Here is the method: Muse Annexin V & Dead Cell kit was used to determine the apoptosis cells in AS-10 treated Panc-1 cells (Plano et al., 2016, J. Med. Chem. 1946-1959). The Muse Annexin V & Dead cell assay contains Annexin V to detect phosphatidylserine (PS) on the outer surface of cells. The kit also contains a dead cell marker, 7-amino-actinomycin D (7-AAD). […] In brief, Panc-1 (1.5×10^5) cells were treated with a given dose of AS-10 or DMSO for appropriate time (0, 6, 12, 24, 36, or 48 h). Both floating cells as well as adherent cells were collected and subjected for Annexin V staining using Muse Annexin V & Dead Cell kit with Muse cell analyzer (EMD Millipore, Billerica, Mass., USA). The obtained data were analyzed using Muse 1.4 software.

Assay [6] concerns Panc-1 cells. Description: Live/dead assay with calcein-AM and ethidium bromide. Conditions: Panc-1, 48 h; AS-10 2.5 μM, gemcitabine 50 μM. Here is the method: To determine the dead cell population, we used LIVE/DEAD Viability/Cytotoxicity Kit (L3224, Life technologies, USA). Panc-1 cells were treated with either DMSO, gemcitabine (50 μM), or AS-10 (2.5 μM) or in combination for 48 h. Live and dead cells were determined by subjecting treated cells to LIVE/DEAD Viability/Cytotoxicity Kit (Plano et al., 2016, J. Med. Chem. 1946-1959). […] While ethidium homodimer-1 can only enter cells who have lost their plasma membrane integrity or dead cells and fluorescents red. Stained cells were visualized using a fluorescence microscope (Zeiss—Axio Scope.A1) with a 20× objective lens. Percentage values of live and dead cells were calculated.

The subject of assay [7] is Panc-1 cells. In words: Western blot analysis of Panc-1 lysates. Conditions: Panc-1, 48 h; low dose AS-10 2.5 μM, gemcitabine 50 μM. Here is the method: Whole-cell lysates were made by subjecting AS-10 treated Panc-1 cells to RIPA lysis buffer (Thermo Scientific, USA) containing protease (Roche, USA) and phosphatase inhibitor cocktails (Sigma-Aldrich, USA) (Plano et al., 2016, J. Med. Chem. 1946-1959). Lysates were spun at 15,000 rpm for 10 minutes. Resulting supernatant was stored at −80° C. until use. NuPAGE gel 4-12% (Life Technologies, Carlsbad, Calif.) was used to resolve the lysates, followed by electro-transfer to PVDF membrane. After the transfer membrane was blocked with 5% non-fat milk and probed with different antibodies. Protein of interest were detected by using enhanced Chemiluminescent reagent (Life technologies, USA). Blots were stripped using Restore Western blot stripping buffer (Thermo Scientific, USA) to save time and samples.

This is an account of results in patent publication US10287259B2, “Selenazolidine and thiazolidine compounds for treating cancer and other diseases” (The Penn State Research Foundation, priority 2016, dated 2019).

Regarding `CC(=O)Oc1ccccc1C(=O)/N=C1\SCCN1C(=O)c1ccccc1OC(C)=O` [ASD-123, 2-((3-(2-acetoxybenzoyl)-1,3-thiazolidin-2-ylidene)carbamoyl)phenyl acetate], the “potency compared to AS-10” value in assay [1] (Panc-1, 48 h (FIG. 5B), Se replaced by S) is reported as “significant loss in the potency”.
Turning to `CC(=O)Oc1ccccc1C(=O)O` [aspirin, reference compound], the “effect on PC cell lines at doses similar to AS-10” value in assay [2] is “did not have any effects”. Further, in assay [3], the “EC50 range, growth inhibition (comparison)” value is on record as “millimolar range”.
On to `O=C(/N=C1\[Se]CCN1C(=O)c1ccccc1)c1ccccc1` [ASD-171, N-(3-benzoyl-1,3-selenazolidin-2-ylidene)benzamide], for which the “potency compared to AS-10” value in assay [4] was “significant loss in the potency”.
With `Nc1ccn([C@@H]2O[C@H](CO)[C@@H](O)C2(F)F)c(=O)n1` [gemcitabine, reference compound], the “response of Panc-1 cells to treatment” value in assay [1] (highest tested dose 500 μM, 48 h) is “resistant”. In assay [5], this molecule returned a total apoptotic cells of around 25%. Further, the dead cells in assay [6] is around 10%. Also, the PARP cleavage result in assay [7] is on record as “no effect on PARP cleavage”.
